According to ChEMBL document CHEMBL1201862, “PubChem BioAssay data set” (2004):
Calls of active or inactive are those of the source.

Columns and labels:
[1] = growth suppression of PTEN-null colon cells, dose response, cell-based, HCT116 PTEN knockout (AID 1047); format: functional;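 also: HCT116 colon tumor cells with PTEN knocked out; cells exposed to compound for 60 hours before readout; potency for loss of cell viability measured by luminescence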
[2] = growth suppression of beta-catenin-knockout colon cells, dose response, cell-based, HCT116, human colon tumor (AID 1045); format: functional;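 also: HCT116 colon tumor cells with beta catenin knocked out; cells exposed to compound for 60 hours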
[3] = A Cell Based Secondary Assay To Explore Cytotoxicity of Compounds that Sensitize Mycobacterium Tuberculosis to Beta-Lactam Antibiotics.; format: functional
[4] = microbe, parasite or virus in culture; format: functional; details: Mycobacterium tuberculosis
INS1 = assay: beta cell apoptosis inhibitors, cytokine rescue, dose response, luminescence, retest (AID 449756); format: functional, cell-based; details: Rattus norvegicus;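 also: cell death triggered by IL-1 beta plus TNF-alpha plus IFN-gamma mixture; protective hits raise ATP signal compared with cytokine alone wells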
[5] = target: T1, Calpain-2 catalytic subunit (Sus scrofa, UniProt P43367); assay: pig calpain II inhibitor potency, dose response, biochemical, fluorogenic peptide substrate (AID 1420); format: functional
T1 sequence (P43367 whole entry): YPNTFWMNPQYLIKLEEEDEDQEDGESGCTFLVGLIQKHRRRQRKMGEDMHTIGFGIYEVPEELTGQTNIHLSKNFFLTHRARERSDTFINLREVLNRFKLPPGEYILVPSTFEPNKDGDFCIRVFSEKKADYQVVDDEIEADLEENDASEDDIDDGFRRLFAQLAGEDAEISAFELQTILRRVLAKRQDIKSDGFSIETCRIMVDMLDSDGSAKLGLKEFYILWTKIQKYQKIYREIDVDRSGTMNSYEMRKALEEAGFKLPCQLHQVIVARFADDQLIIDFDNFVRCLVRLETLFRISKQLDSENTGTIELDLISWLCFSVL

[6] = target: T2, Zinc finger protein mex-5 (Caenorhabditis elegans, UniProt Q9XUB2); assay: MEX-5/TCR-2 RNA interaction inhibitors, dose response, biochemical, C. elegans, fluorescence polarization (AID 1960)
T2 sequence (Q9XUB2 whole entry): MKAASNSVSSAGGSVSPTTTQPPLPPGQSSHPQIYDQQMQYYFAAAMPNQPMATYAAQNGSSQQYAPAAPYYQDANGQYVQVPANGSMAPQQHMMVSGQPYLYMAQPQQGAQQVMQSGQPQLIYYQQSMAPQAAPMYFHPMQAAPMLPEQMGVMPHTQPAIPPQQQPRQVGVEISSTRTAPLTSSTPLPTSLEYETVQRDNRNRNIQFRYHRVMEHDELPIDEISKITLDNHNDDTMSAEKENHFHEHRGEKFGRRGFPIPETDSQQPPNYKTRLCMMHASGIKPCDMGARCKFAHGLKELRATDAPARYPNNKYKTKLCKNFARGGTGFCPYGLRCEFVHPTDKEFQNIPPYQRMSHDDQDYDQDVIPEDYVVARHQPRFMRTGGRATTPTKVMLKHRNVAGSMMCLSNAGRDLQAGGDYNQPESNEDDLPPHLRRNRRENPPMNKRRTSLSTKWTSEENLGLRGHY

[7] = target: T3, RNA-binding protein pos-1 (Caenorhabditis elegans, UniProt G5EF15); assay: inhibitors of POS-1/mex-3 RNA binding, dose response, biochemical, fluorescence polarization (AID 1964);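 also: purified POS-1 fused to maltose binding protein made in E. coli; potency of compounds blocking POS-1 binding to fluorescent RNA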
T3 sequence (G5EF15 whole entry): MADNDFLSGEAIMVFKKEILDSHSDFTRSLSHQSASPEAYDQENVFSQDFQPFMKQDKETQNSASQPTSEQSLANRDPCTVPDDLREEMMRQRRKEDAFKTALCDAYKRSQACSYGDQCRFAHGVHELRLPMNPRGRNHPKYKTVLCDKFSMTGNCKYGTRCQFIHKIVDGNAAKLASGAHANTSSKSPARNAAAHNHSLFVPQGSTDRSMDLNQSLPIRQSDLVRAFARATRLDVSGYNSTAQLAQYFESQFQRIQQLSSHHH

Prothrombin = Prothrombin (Homo sapiens, UniProt P00734); assay: Thrombin 1536 HTS Dose Response Confirmation. [Related pubchem assays: 1046 (Thrombin 1536 HTS; hits were confirmed in this assay)]; format: functional
Aminopeptidase N = target: T4, Aminopeptidase N (Plasmodium falciparum FcB1/Columbia, UniProt O96935); assay: P. falciparum M1AAP inhibitors, biochemical, fluorogenic H-Leu-NHMec substrate, 1536-well (AID 1445); set-up: species or system Plasmodium falciparum 3D7, 3D7
T4 sequence (O96935 whole entry): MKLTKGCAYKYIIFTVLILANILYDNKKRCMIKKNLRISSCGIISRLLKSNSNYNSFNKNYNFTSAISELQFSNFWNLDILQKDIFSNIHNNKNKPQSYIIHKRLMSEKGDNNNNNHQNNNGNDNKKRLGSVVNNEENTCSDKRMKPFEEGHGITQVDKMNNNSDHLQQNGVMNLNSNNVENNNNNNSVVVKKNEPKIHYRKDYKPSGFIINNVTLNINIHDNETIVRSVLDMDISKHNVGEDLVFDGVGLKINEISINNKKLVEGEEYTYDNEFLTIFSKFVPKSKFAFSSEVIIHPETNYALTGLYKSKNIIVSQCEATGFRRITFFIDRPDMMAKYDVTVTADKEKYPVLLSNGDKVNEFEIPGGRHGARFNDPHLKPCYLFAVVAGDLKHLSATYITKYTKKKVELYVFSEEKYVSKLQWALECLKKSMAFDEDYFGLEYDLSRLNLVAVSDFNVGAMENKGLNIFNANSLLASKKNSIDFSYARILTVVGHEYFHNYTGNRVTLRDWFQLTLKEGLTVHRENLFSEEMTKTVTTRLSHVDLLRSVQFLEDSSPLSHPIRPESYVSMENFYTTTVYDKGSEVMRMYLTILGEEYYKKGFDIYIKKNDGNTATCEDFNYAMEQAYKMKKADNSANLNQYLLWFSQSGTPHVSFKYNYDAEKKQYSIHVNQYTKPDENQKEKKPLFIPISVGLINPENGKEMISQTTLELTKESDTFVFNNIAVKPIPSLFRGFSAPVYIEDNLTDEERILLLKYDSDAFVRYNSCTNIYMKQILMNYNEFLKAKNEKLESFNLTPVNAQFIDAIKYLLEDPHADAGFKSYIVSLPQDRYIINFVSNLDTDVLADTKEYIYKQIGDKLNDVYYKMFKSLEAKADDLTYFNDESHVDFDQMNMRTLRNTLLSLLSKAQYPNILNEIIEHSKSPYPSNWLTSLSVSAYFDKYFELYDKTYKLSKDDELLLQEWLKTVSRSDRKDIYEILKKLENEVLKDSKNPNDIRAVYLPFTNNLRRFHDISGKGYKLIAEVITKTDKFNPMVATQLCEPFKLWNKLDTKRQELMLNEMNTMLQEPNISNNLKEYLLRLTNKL

cells = format: functional
fMet-Leu-Phe receptor = target: T5, fMet-Leu-Phe receptor (Homo sapiens, UniProt P21462); assay: FPR ligands, dose response (AID 519); format: functional
T5 sequence (P21462 whole entry): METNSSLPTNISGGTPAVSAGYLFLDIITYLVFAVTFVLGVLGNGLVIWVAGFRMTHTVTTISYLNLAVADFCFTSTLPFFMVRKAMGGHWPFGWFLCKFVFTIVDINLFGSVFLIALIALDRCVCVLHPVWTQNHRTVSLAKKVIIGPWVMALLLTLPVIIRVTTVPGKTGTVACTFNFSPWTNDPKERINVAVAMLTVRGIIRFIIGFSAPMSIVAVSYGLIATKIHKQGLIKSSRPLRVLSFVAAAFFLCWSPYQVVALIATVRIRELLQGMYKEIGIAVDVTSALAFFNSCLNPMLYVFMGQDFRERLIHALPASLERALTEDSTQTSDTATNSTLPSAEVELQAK

[8] = target: T6, Corticotropin-releasing factor receptor 2/Corticotropin-releasing factor-binding protein (Homo sapiens, UniProt P24387+Q13324); assay: Dose Response confirmation of uHTS hits for small molecule antagonists of the CRF-binding protein and CRF-R2 receptor complex.; format: functional; details: read-out: IC50_Mean
T6 sequence (Q13324 whole entry): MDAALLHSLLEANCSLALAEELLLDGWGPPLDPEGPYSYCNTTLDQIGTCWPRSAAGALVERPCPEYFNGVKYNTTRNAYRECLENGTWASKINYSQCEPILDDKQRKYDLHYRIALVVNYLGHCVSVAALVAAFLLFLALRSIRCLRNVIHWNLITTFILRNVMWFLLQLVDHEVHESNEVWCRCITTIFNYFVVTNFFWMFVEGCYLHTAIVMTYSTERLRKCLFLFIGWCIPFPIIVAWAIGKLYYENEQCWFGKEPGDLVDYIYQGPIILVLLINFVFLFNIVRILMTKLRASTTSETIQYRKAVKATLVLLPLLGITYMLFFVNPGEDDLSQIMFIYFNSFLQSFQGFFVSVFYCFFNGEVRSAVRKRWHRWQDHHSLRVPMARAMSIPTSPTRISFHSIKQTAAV
T6 sequence (P24387 whole entry): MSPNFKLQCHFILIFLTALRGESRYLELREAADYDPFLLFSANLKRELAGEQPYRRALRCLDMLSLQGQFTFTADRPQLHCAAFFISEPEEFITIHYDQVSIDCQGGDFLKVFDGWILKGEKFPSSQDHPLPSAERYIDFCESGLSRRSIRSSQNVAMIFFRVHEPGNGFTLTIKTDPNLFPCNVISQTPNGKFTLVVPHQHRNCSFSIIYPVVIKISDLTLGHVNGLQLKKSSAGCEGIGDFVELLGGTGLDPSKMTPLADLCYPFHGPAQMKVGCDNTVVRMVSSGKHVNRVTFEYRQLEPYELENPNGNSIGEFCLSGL

[9] = target: T6, Corticotropin-releasing factor receptor 2/Corticotropin-releasing factor-binding protein; assay: activators of CRF receptor 2 with binding protein – uHTS hits, confirmation (AID 602473); format: functional; details: read-out: EC50_Mean
Paired box protein Pax-8 = Paired box protein Pax-8 (Homo sapiens, UniProt Q06710); assay: inhibitors of PAX8-driven TPO luciferase reporter, dose response, RMG-I cells, cherry-pick (AID 687027); format: functional, cell-based;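 also: luciferase reporter driven by Pax8 target thyroperoxidase promoter measured by SteadyGlo luminescence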
Chain of Paired box protein Pax-8 (Q06710 whole entry): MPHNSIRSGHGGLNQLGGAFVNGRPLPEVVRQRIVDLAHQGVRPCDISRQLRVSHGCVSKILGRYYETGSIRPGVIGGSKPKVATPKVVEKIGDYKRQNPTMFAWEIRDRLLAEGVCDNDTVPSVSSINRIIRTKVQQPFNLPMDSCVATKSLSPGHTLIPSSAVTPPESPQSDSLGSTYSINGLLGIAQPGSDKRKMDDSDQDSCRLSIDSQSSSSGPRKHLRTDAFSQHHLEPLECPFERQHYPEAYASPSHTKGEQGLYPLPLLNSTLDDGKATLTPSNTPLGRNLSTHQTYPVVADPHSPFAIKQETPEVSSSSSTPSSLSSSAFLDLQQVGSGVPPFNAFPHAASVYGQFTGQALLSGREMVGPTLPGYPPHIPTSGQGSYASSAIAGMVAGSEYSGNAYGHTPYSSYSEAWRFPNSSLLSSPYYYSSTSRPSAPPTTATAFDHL

[10] = NIH:OVCAR-3 ovarian cancer cell cytotoxicity, dose response, PAX8 inhibitor project, plate reader, dry powder samples (AID 743044); format: functional, cell-based
Cytochrome P450 2C19 = Cytochrome P450 2C19 (Homo sapiens, UniProt P33261); assay: Cytochrome panel assay with activity outcomes. Panel member name: p450-cyp2c19 Compounds with AC50 equal or less than 10 uM are considered active; format: functional; details: read-out: AC50
Chain of Cytochrome P450 2C19 (P33261 whole entry): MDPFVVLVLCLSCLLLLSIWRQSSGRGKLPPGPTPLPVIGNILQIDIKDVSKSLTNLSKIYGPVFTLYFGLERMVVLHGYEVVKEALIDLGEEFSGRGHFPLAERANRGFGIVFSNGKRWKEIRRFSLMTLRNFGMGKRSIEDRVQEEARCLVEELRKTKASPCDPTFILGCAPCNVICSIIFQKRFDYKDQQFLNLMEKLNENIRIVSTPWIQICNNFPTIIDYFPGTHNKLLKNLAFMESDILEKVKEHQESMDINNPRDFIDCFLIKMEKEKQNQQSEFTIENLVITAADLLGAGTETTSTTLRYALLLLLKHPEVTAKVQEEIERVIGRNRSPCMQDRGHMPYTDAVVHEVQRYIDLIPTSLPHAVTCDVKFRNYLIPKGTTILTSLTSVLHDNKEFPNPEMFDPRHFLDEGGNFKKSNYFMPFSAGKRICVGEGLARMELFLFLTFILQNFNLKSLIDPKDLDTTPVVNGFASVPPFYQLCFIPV

Cytochrome P450 2C9 = Cytochrome P450 2C9 (Homo sapiens, UniProt P11712)
Chain of Cytochrome P450 2C9 (P11712 whole entry): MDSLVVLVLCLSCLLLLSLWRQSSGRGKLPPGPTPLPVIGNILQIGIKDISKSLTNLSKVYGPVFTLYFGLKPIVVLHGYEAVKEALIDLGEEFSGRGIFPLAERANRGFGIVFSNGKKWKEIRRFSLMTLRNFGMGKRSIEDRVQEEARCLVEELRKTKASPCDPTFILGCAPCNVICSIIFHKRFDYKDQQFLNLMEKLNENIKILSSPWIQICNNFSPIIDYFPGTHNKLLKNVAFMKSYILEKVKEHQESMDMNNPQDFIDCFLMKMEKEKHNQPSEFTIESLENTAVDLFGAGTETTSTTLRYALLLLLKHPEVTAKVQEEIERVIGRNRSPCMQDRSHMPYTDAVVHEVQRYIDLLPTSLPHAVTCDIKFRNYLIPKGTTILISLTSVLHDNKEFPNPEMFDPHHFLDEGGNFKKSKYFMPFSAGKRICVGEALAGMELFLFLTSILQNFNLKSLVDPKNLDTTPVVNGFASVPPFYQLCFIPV

[11] = target: T7, Long-chain-fatty-acid--AMP ligase FadD28 (Mycobacterium tuberculosis, UniProt P9WQ59); assay: Fluorescence polarization aasay to screen for inhibitors that compete for the binding of FadD28 to a bisubstrate Measured in Biochemical System Using Plate Reader - 2147-01_Inhibitor_Dose_CherryPick_Activity.; format: functional, Mycobacterium tuberculosis H37Rv
T7 sequence (P9WQ59 whole entry): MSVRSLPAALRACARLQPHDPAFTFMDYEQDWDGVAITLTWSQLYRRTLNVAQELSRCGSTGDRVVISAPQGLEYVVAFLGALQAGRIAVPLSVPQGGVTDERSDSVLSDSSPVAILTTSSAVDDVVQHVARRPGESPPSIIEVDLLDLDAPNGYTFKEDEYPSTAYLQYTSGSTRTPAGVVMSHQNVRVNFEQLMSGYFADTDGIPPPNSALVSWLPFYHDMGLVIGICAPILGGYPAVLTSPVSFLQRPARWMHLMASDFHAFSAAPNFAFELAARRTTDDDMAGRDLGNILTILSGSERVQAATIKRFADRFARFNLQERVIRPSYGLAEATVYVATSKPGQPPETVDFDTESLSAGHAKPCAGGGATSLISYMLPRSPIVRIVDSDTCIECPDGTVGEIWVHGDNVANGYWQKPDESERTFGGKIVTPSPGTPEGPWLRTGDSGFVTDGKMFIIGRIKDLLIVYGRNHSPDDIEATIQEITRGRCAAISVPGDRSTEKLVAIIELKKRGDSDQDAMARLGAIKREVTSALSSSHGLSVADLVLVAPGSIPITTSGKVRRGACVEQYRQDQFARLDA

O=C(Nc1ccc2oc(-c3ccc(Cl)c(Cl)c3)nc2c1)c1nc[nH]n1
EC50 [1]: 3.34 µM (active)
EC50 [2]: 4.31 µM (active)
CC50 [3]: 16.4 µM (active)

CCCCCCCNC1=CC(=O)CC(c2ccccc2)C1 (configuration not stated)
CC50 [4]: 38 µM (active)
AC50 (INS1): 6.36 µM (active)
IC50 [5]: 9.58 µM (not active)

CN(C)CCCN(C(=O)/C=C/c1cccs1)c1nc2ccc(F)cc2s1
EC50 [6]: > 300 µM (not active)
EC50 [7]: > 300 µM (not active)
CC50 [3]: 12.4 µM (active)

Cc1ccc(OCc2nnc(S)n2N)cc1C
IC50 (Prothrombin): > 50 µM (not active)

COc1ccc(/C=C2\SC(=S)N(C(C(=O)O)c3ccccc3)C2=O)c(OC)c1 (configuration not stated)
IC50 (Aminopeptidase N): 21.9 µM (active)

O=C(Nc1nc2ccccc2n1CCN1CCCC1)C1CCCCC1
IC50 (cells): 46.9 µM (active)
CC50 [3]: > 40 µM (active)

COc1cccc(NS(=O)(=O)c2ccc3ncc(C(=O)NCCC(C)C)c(O)c3c2)c1
CC50 [3]: > 40 µM (active)

COc1cc(C2C(C(=O)c3ccco3)=C(O)C(=O)N2c2cc(C)on2)cc(Br)c1O (configuration not stated)
Ki (fMet-Leu-Phe receptor): 47.7 µM (inactive)
IC50 [8]: > 47.1 µM (inactive)
EC50 [9]: > 53 µM (inactive)

O=C(c1cccnc1)n1nc(-c2ccco2)nc1NCc1cccs1
IC50 (Prothrombin): 0.001 µM (active)

COc1ccc(-c2cc(-c3ccc(OC)cc3)nc(-c3ccc4c(c3)NC(=O)CO4)c2)cc1
CC50 [3]: 38.7 µM (active)

CCCC(C)C1(CC)C(=O)N=C(Nc2ccccc2OC)NC1=O (configuration not stated)
IC50 (Aminopeptidase N): 52.1 µM (active)

CCN(CC)CCNC(=O)c1ccc(NC(=O)c2cn(-c3ccccc3)nc2-c2cccs2)cc1
CC50 [4]: 7.35 µM (active)
AC50 (INS1): 6.79 µM (active)

Nc1nc(-c2cccnc2)nn1C(=O)c1ccc(Cl)cc1
IC50 (Prothrombin): 0.781 µM (active)

CC(C)NC(=O)N(C)C[C@H]1OCCCC[C@H](C)Oc2ccc(NC(=O)Nc3ccc(C(F)(F)F)cc3)cc2C(=O)N([C@H](C)CO)C[C@@H]1C
AC50 (Paired box protein Pax-8): 12.5 µM (active)
AC50 [10]: 53.3 µM (active)

COC(=O)Cc1ccc(NC(=S)N2CCN(c3ccc(F)cc3)CC2)cc1
IC50 (Prothrombin): > 50 µM (not active)

Cc1nc2c(C)cccn2c1C(=O)C1=C(O)C(=O)N(CCN2CCOCC2)C1c1cccs1 (configuration not stated)
AC50 (Cytochrome P450 2C19): 8.91 µM (inconclusive)
AC50 (Cytochrome P450 2C9): 10 µM (inconclusive)
Ki (fMet-Leu-Phe receptor): > 66.7 µM (inactive)

COc1cc(/C=N/NC(=O)C(Cc2c[nH]c3ccccc23)NC(=O)OCC(C)C)cc([N+](=O)[O-])c1O (configuration not stated)
AC50 [11]: 65.6 µM (active)
IC50 (Aminopeptidase N): 16.7 µM (active)

CC(C)Nc1nc(C#N)nc(NC(C)C)n1
IC50 (Prothrombin): 23 µM (active)
